Reference: patent US11420969B2 (Exonate Limited, priority 2017, dated 2022)

Tests used:
SRPK1 = SRPK1 (Homo sapiens, UniProt Q96SB4); test: In vitro SRPK1 assay (Kinase-Glo); assay type: biochemical
CYP3A4 = target: T1, CYP3A4 (Homo sapiens, UniProt P08684); test: CYP inhibition assay, human liver microsomes, substrate midazolam; assay type: in vitro ADME; details: human liver microsomes, 10 min incubation, LC-MS/MS; read-out: CYP Inhibition Activity (IC50/nM) CYP3A4
T1 construct: from tissue; host or cells: human liver microsomes
T1 sequence (P08684 whole entry): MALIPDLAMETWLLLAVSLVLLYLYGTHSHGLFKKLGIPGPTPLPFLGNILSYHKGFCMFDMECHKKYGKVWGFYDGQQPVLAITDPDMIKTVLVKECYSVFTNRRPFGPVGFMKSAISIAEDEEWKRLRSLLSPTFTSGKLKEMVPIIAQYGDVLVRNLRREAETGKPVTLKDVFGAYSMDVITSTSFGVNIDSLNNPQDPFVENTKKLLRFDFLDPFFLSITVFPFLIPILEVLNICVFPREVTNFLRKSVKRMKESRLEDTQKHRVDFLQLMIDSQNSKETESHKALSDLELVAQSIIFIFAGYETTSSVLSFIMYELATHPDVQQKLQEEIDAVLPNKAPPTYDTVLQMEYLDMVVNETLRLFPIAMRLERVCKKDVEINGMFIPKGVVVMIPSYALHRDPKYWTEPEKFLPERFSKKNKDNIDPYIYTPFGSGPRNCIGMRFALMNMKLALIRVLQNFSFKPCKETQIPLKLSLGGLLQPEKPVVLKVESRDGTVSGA
Experimental: (§1) 2 μL of test compound/Positive Inhibitor working solutions is then added to the reaction plate (2 μL/well). For control, 2 μL of Acetonitrile (ACN) containing DMSO (without inhibitor) is added to the reaction plate. 20 μL of substrate pool is added to all the wells of the reaction plate. The samples are mixed in a vortexer and pre-incubated at 37° C. for 20 min. The NADPH solution is pre-warmed at 37° C. for 5 min. 20 μL of pre-warmed NADPH solution is added to the reaction plate and then incubated at 37° C. for 10 min. The reaction is terminated by adding cold ACN (200 μL/well) to the reaction mixture and centrifuging at 4,000 rpm for 20 minutes. After centrifugation, supernatant is separated and analyzed by LC-MS/MS.
(§2) % inhibition and IC50 are calculated using Graphpad Prism software.

CYP2D6 = target: T2, CYP2D6 (Homo sapiens, UniProt P10635); test: biochemical; assay type: in vitro ADME
T2 construct: from tissue; host or cells: human liver microsomes
T2 sequence (P10635 whole entry): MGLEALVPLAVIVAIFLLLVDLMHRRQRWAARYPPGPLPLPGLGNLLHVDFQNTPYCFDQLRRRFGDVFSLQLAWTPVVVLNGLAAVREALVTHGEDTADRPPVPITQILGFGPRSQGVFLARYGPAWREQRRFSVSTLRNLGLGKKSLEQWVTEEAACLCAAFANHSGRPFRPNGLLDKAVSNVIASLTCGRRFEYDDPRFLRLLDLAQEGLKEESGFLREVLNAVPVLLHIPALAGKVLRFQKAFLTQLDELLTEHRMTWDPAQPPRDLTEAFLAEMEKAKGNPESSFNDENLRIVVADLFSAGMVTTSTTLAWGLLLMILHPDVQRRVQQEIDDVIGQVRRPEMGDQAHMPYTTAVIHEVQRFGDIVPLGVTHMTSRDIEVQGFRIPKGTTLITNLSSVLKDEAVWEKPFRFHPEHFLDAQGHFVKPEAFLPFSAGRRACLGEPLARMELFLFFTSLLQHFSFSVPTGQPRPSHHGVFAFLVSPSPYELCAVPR
Experimental: 158 μL of Human Liver Microsomes working stock solution is added to a reaction plate (0.253 mg/mL, 158 μL/well). 2 μL of test compound/Positive Inhibitor working solutions is then added to the reaction plate (2 μL/well). For control, 2 μL of Acetonitrile (ACN) containing DMSO (without inhibitor) is added to the reaction plate. 20 μL of substrate pool is added to all the wells of the reaction plate. The samples are mixed in a vortexer and pre-incubated at 37° C. for 20 min. The NADPH solution is pre-warmed at 37° C. for 5 min. 20 μL of pre-warmed NADPH solution is added to the reaction plate and then incubated at 37° C. for 10 min. The reaction is terminated by adding cold ACN (200 μL/well) to the reaction mixture and centrifuging at 4,000 rpm for 20 minutes. After centrifugation, supernatant is separated and analyzed by LC-MS/MS.
as §2

CYP2C19 = target: T3, CYP2C19 (Homo sapiens, UniProt P33261); test: CYP inhibition assay, human liver microsomes, substrate S-mephenytoin; assay type: in vitro ADME; details: human liver microsomes, 10 min incubation, LC-MS/MS; read-out: CYP Inhibition Activity (IC50/nM) CYP2C19
T3 construct: from tissue; host or cells: human liver microsomes
T3 sequence (P33261 whole entry): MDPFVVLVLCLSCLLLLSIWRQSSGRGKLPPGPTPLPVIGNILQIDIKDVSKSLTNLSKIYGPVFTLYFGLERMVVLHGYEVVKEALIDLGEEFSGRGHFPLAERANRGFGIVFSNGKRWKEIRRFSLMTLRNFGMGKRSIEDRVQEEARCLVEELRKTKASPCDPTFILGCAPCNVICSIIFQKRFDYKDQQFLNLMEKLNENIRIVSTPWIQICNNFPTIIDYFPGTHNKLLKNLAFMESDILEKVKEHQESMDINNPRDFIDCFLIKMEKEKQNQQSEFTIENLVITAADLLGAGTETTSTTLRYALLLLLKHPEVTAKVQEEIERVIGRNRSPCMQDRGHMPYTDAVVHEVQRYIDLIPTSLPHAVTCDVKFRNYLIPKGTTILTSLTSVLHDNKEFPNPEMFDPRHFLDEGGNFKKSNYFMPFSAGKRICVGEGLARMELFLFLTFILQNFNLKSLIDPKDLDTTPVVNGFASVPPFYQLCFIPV
Experimental: as §1, §2

CYP1A2 = target: T4, CYP1A2 (Homo sapiens, UniProt P05177); test: CYP inhibition assay, human liver microsomes, substrate tacrine; assay type: in vitro ADME; details: human liver microsomes, 10 min incubation, LC-MS/MS; read-out: CYP Inhibition Activity (IC50/nM) CYP1A2
T4 construct: from tissue; host or cells: human liver microsomes
T4 sequence (P05177 1-516): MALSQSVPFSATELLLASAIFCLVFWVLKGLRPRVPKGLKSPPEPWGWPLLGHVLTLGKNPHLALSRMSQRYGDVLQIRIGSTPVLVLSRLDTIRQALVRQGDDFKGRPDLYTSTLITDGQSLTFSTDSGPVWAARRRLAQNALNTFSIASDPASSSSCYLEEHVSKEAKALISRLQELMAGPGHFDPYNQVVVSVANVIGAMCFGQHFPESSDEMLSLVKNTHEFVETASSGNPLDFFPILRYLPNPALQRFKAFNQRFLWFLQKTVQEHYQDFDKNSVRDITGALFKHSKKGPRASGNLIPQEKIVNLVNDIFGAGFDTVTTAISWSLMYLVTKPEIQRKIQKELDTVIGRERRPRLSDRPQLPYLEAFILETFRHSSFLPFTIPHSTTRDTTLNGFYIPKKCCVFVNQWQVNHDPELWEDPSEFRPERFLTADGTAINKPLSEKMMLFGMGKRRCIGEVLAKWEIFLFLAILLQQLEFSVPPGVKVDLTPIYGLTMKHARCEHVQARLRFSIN
Experimental: as §1, §2

CYP2C9 = target: T5, CYP2C9 (Homo sapiens, UniProt P11712); test: CYP inhibition assay, human liver microsomes, substrate diclofenac; assay type: in vitro ADME; details: human liver microsomes, 10 min incubation, LC-MS/MS; read-out: CYP Inhibition Activity (IC50/nM) CYP2C9
T5 construct: from tissue; host or cells: human liver microsomes
T5 sequence (P11712 whole entry): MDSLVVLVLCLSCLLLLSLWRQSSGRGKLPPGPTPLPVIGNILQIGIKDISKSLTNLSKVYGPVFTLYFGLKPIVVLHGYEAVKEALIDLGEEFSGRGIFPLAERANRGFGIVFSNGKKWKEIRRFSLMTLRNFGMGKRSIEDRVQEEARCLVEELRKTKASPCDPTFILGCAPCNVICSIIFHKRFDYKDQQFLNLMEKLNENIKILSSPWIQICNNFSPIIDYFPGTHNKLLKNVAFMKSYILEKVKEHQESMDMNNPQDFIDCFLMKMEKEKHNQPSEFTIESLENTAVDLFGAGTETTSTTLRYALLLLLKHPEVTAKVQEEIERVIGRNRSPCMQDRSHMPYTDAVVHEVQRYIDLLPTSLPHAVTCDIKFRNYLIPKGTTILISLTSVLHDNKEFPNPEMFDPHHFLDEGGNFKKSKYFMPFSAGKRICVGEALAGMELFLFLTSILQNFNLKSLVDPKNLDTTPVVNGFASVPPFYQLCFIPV
Experimental: as §1, §2

Chain of SRPK1 (Q96SB4 whole entry, species assumed): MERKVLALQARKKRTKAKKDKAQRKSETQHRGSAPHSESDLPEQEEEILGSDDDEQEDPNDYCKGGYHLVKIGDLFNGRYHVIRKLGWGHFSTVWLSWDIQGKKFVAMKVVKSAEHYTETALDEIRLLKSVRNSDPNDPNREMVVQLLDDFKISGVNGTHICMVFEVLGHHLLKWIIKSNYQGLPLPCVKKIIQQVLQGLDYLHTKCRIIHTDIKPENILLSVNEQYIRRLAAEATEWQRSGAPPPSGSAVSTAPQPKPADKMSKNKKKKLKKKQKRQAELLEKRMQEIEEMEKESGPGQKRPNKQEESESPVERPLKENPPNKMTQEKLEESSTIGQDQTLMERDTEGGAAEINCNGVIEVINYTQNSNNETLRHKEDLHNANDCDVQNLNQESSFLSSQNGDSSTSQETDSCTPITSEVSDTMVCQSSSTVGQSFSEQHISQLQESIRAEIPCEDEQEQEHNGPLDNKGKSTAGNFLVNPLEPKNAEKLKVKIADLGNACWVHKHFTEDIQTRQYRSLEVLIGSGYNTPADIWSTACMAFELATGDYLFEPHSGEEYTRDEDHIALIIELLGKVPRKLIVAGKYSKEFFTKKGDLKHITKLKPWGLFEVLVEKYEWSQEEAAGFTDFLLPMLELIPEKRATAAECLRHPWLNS

| SMILES | IC50 (SRPK1) [nM] | IC50 (CYP3A4) [nM] | IC50 (CYP2D6) [µM] | IC50 (CYP2C19) [nM] | IC50 (CYP1A2) [nM] | IC50 (CYP2C9) [nM] |
| --- | --- | --- | --- | --- | --- | --- |
| CC1(O)CCN(c2ccc(OC(F)(F)F)cc2NC(=O)c2ccc(-c3ccncc3)o2)CC1 [Example 10, N-(2-(4-hydroxy-4-methylpiperidin-1-yl)-5-(trifluoromethoxy)phenyl)-5-(pyridin-4-yl)furan-2-carboxamide] | 6 | 3780 | 5.42 | 2670 | 14400 | 1770 |
| CC1(O)CCN(c2ccc(C(F)(F)F)cc2NC(=O)c2ccc(C3CCOCC3)o2)CC1 [Example 11, N-(2-(4-hydroxy-4-methylpiperidin-1-yl)-5-(trifluoromethyl)-phenyl)-5-(tetrahydro-2H-pyran-4-yl)furan-2-carboxamide] | 3 | 16300 | 15.4 | 10200 | 17900 | 9310 |
| Cc1ccc(N2CCC(C)(O)CC2)c(NC(=O)c2ccc(C3CCOCC3)o2)c1 [Example 13, N-(2-(4-hydroxy-4-methylpiperidin-1-yl)-5-methylphenyl)-5-(tetrahydro-2H-pyran-4-yl)furan-2-carboxamide] | 17.4 | 23200 | > 30 | 15100 | > 30000 | 7600 |
| CC1(O)CCN(c2ccc(C(F)F)cc2NC(=O)c2ccc(C3CCOCC3)o2)CC1 [Example 14, N-(5-(difluoromethyl)-2-(4-hydroxy-4-methyl-piperidin-1-yl)phenyl)-5-(tetrahydro-2H-pyran-4-yl)furan-2-carboxamide] | 7.3 | 7700 | 25.9 | 7700 | 19000 | 3800 |
| COc1ccc(N2CCC(C)(O)CC2)c(NC(=O)c2ccc(C3CCOCC3)o2)c1 [Example 15, N-(2-(4-hydroxy-4-methylpiperidin-1-yl)-5-methoxyphenyl)-5-(tetrahydro-2H-pyran-4-yl)furan-2-carboxamide] | 5.2 | 10600 | 19.1 | 7690 | 6270 | 2970 |
| CC1(O)CCN(c2ccc(OC(F)(F)F)cc2NC(=O)c2ccc(C3CCOCC3)o2)CC1 [Example 16, N-(2-(4-hydroxy-4-methylpiperidin-1-yl)-5-(trifluoromethoxy)phenyl)-5-(tetrahydro-2H-pyran-4-yl)furan-2-carboxamide] | 16 | 27300 | 10.5 | 9550 | 26700 | 5690 |
| CC1(O)CCN(c2ccc(C3CC3)cc2NC(=O)c2ccc(C3CCOCC3)o2)CC1 [Example 17, N-(5-cyclopropyl-2-(4-hydroxy-4-methylpiperidin-1-yl)phenyl)-5-(tetrahydro-2H-pyran-4-yl)furan-2-carboxamide] | 2 | 15200 | > 30 | 9570 | > 30000 | 3770 |
| COC1(C)CCN(c2ccc(C(F)(F)F)cc2NC(=O)c2ccc(C3CCOCC3)o2)CC1 [Example 18, N-(2-(4-methoxy-4-methylpiperidin-1-yl)-5-(trifluoromethyl)-phenyl)-5-(tetrahydro-2H-pyran-4-yl)furan-2-carboxamide] | 54 | 9800 | 15.8 | 4910 | > 30000 | 5160 |
| O=C(Nc1cc(C(F)(F)F)ccc1N1CCC(O)(Cc2ccccc2)CC1)c1ccc(C2CCOCC2)o1 [Example 19] | 39 | 18800 | > 30 | 12300 | 15300 | 12700 |
| CCC1(O)CCN(c2ccc(C(F)(F)F)cc2NC(=O)c2ccc(C3CCOCC3)o2)CC1 [Example 20, N-(2-(4-ethyl-4-hydroxypiperidin-1-yl)-5-(trifluoromethyl)phenyl)-5-(tetrahydro-2H-pyran-4-yl)furan-2-carboxamide] | 6 | > 30000 | > 30 | > 30000 | > 30000 | > 30000 |
| O=C(Nc1cc(C(F)(F)F)ccc1N1CCC(O)(C2CC2)CC1)c1ccc(C2CCOCC2)o1 [Example 21, N-(2-(4-cyclopropyl-4-hydroxypiperidin-1-yl)-5-(trifluoromethyl)-phenyl)-5-(tetrahydro-2H-pyran-4-yl)furan-2-carboxamide] | 9 | 20900 | 7.14 | 6140 | > 30000 | 6350 |
| O=C(Nc1cc(C(F)(F)F)ccc1N1CCC(O)(c2ccccc2)CC1)c1ccc(C2CCOCC2)o1 [Example 22, N-(2-(4-hydroxy-4-phenylpiperidin-1-yl)-5-(trifluoromethyl)-phenyl)-5-(tetrahydro-2H-pyran-4-yl)furan-2-carboxamide] | 35 | 18800 | > 30 | 12300 | 15300 | 12700 |
| O=C(Nc1cc(C(F)(F)F)ccc1N1CCC(O)(CC2CC2)CC1)c1ccc(C2CCOCC2)o1 [Example 23, N-(2-(4-(cyclopropylmethyl)-4-hydroxypiperidin-1-yl)-5-(trifluoromethyl)phenyl)-5-(tetrahydro-2H-pyran-4-yl)furan-2-carboxamide] | 64 | 2650 | 0.03 | 260 | 2510 | 220 |
| CC1(CO)CCN(c2ccc(C(F)(F)F)cc2NC(=O)c2ccc(-c3ccncc3)o2)CC1 [Example 24, N-(2-(4-(hydroxymethyl)-4-methylpiperidin-1-yl)-5-(trifluoromethyl)phenyl)-5-(pyridin-4-yl)furan-2-carboxamide] | 2 | > 30000 | > 30 | > 30000 | > 30000 | > 30000 |
| CC1(CO)CCN(c2ccc(C(F)(F)F)cc2NC(=O)c2ccc(C3CCOCC3)o2)CC1 [Example 25, N-(2-(4-(hydroxymethyl)-4-methylpiperidin-1-yl)-5-(trifluoromethyl)phenyl)-5-(tetrahydro-2H-pyran-4-yl)furan-2-carboxamide] | 2 | > 30000 | > 30 | 15800 | > 30000 | 4960 |
| CC1(C(=O)O)CCN(c2ccc(C(F)(F)F)cc2NC(=O)c2ccc(-c3ccncc3)o2)CC1 [Example 26, 4-methyl-1-(2-(5-(pyridin-4-yl)furan-2-carboxamido)-4-(trifluoromethyl)phenyl)-piperidine-4-carboxylic acid] | 5.6 | 4440 | > 30 | 12900 | > 30000 | 2150 |
| CC1(C(=O)O)CCN(c2ccc(C(F)(F)F)cc2NC(=O)c2ccc(C3CCOCC3)o2)CC1 [Example 27, 4-methyl-1-(2-(5-(tetrahydro-2H-pyran-4-yl)furan-2-carboxamido)-4-(trifluoromethyl)phenyl)-piperidine-4-carboxylic acid] | 3.6 | > 30000 | > 30 | > 30000 | > 30000 | 12600 |
| CC1(C)CCN(c2ccc(C(F)(F)F)cc2NC(=O)c2ccc(-c3ccncc3)o2)CC1 [Example 28, N-(2-(4,4-dimethylpiperidin-1-yl)-5-(trifluoromethyl)phenyl)-5-(pyridin-4-yl)furan-2-carboxamide] | 15 | > 30000 | > 30 | > 30000 | > 30000 | > 30000 |
